Reference: patent publication US20140010762A1, “IMAGING AGENTS” (Chroma Therapeutics Ltd, priority 2010, published 2014)

How the values were obtained:
THP-1 cells = experiment: Measurement of fluorescence v time by flow cytometry, monocytic cell line; assay type: cell-based; settings: THP-1 cells (significant quantities of hCE-1); FIG. 6; 3000 nM; median fluorescence intensity v time
Description: (§1) The degree of fluorescence of monocytic and non-monocytic cell lines following treatment with Example 1 was assessed using flow cytometry. This assessment was performed using a BD Biosciences BD FACSCanto™ Flow Cytometry System.
(§2) The cell lines are treated with a 3000 nM solution of Example 1. The resultant mixture is sampled at times 0, 1 hr, 2 hr, 4 hr and 6 hr. At each time point a sample of the cells is harvested by centrifugation, washed and allowed to rest for 30 minutes then washed again and re-suspended in a small volume for analysis by flow cytometry (FACSCanto™ A BD Biosciences) at an excitation of 488 nm blue laser line emission measured in an FITC detector using a 502 nm long pass dichroic and a 530±15 band pass filter. Data is expressed as median fluorescence intensity (MFI) for the cell population in the FITC channel, and plotted against time in a line graph. The unstained cells are set to an MFI of 100.

KG-1 cells = experiment: Measurement of fluorescence v time by flow cytometry, non-monocytic cell line; assay type: cell-based; settings: KG-1 cells (insignificant quantities of hCE-1); FIG. 5; 3000 nM; median fluorescence intensity v time
Description: as §1, §2

O=C(OC1CCCC1)[C@@H](NCc1ccc(OCCCNc2ccc([N+](=O)[O-])c3nonc23)cc1)c1ccccc1 [Example 1, Cyclopentyl (2S)-[(4-{3-[(7-nitro-2,1,3-benzoxadiazol-4-yl)amino]propoxy}benzyl)amino](phenyl)ethanoate]
increase in fluorescence following treatment (THP-1 cells): high increase in fluorescence | increase in fluorescence following treatment (KG-1 cells): low increase in fluorescence
